The text below walks through data of patent publication US9850256B2, “Antibacterial basic biaromatic derivatives with aminoalkoxy substitution” (priority 2014, dated 2017).

What all share (assay): Bacterial growth minimal inhibitory concentration (microdilution, cation-adjusted Mueller-Hinton Broth)
In general terms: Broth dilution looks for growth in wells or tubes with falling amounts of substance.

For one assay, the system named is K. pneumoniae T6474. The class given is cell-based, Klebsiella pneumoniae. The conditions noted are these: multiply-resistant strain (penicillin-, cephalosporin- and quinolone-resistant); for MIC: Klebsiella pneumoniae, T6474. As to the method: (§1) Minimal Inhibitory Concentrations (MICs; mg/L) were determined in cation-adjusted Mueller-Hinton Broth by a microdilution method following the description given in “Methods for Dilution Antimicrobial Susceptibility Tests for Bacteria that Grow Aerobically”, Approved standard, 7th ed., Clinical and Laboratory Standards Institute (CLSI) Document M7-A7, Wayne, Pa., USA (2006).
(§2) All Example compounds were tested against several Gram positive and Gram negative bacteria. […] Staphylococcus aureus A798 is a multiply-resistant strain (methicillin- and quinolone-resistant), Klebsiella pneumoniae T6474 is a multiply-resistant strain (penicillin-, cephalosporin- and in particular quinolone-resistant), while E. coli ATCC25922 and Pseudomonas aeruginosa ATCC 27853 are quinolone-sensitive strains.

The subject of the next assay is E. coli ATCC25922. Format: cell-based. The conditions noted are these: quinolone-sensitive strain; for MIC: Escherichia coli, ATCC25922. As to the method:
as §1, §2

For another assay, the system named is P. aeruginosa ATCC 27853. The class given is cell-based, Pseudomonas aeruginosa. The conditions noted are these: quinolone-sensitive strain; for MIC: Pseudomonas aeruginosa, ATCC27853. As to the method:
as §1, §2

The subject of the next assay is S. aureus A798. The class given is cell-based, Staphylococcus aureus. To be noted: multiply-resistant strain (methicillin- and quinolone-resistant); for MIC: Staphylococcus aureus, A798. As to the method:
as §1, §2

SMILES strings stand for the structures. Values after ≈ are worked out from the molar mass of the structure shown.

As to `NCCOc1cccc(-c2cccc(CNCC[C@@H]3CN(c4ccc5c(c4)NC(=O)CS5)C(=O)O3)c2)n1` [Example 22, 6-[(R)-5-(2-{3-[6-(2-amino-ethoxy)-pyridin-2-yl]-benzylamino}-ethyl)-2-oxo-oxazolidin-3-yl]-4H-benzo[1,4]thiazin-3-one], the MIC against K. pneumoniae T6474 amounted to 2 µg/mL (≈ 3.85 µM); against E. coli ATCC25922, 0.5 µg/mL (≈ 0.962 µM); with P. aeruginosa ATCC 27853 it was 0.5 µg/mL (≈ 0.962 µM); with S. aureus A798, 0.5 µg/mL (≈ 0.962 µM).
For the compound `O=C1COc2ccc(N3C[C@H](CCNCc4cccc(-c5cccc(OCCN6CCOCC6)n5)c4)OC3=O)nc2N1` [Example 23, 6-[(S)-5-(2-{3-[6-(2-morpholin-4-yl-ethoxy)-pyridin-2-yl]-benzylamino}-ethyl)-2-oxo-oxazolidin-3-yl]-4H-pyrido[3,2-b][1,4]oxazin-3-one], the MIC came to 8 µg/mL (≈ 13.9 µM) against K. pneumoniae T6474, 4 µg/mL (≈ 6.96 µM) against E. coli ATCC25922, 8 µg/mL (≈ 13.9 µM) in the assay with P. aeruginosa ATCC 27853 and 0.125 µg/mL (≈ 0.218 µM) in the assay on S. aureus A798.
Consider `O=C1COc2ccc(N3C[C@H](CCNCc4cccc(-c5cccc(OC[C@@H]6CCN6)c5)c4)OC3=O)nc2N1` [Example $101, 6-[(S)-5-(2-{[3′-((S)-1-azetidin-2-ylmethoxy)-biphenyl-3-ylmethyl]-amino}-ethyl)-2-oxo-oxazolidin-3-yl]-4H-pyrido[3,2-b][1,4]oxazin-3-one], for which the MIC was determined as 2 µg/mL (≈ 3.78 µM) against K. pneumoniae T6474, 1 µg/mL (≈ 1.89 µM) with E. coli ATCC25922, 1 µg/mL (≈ 1.89 µM) in the assay with P. aeruginosa ATCC 27853 and 2 µg/mL (≈ 3.78 µM) in the assay on S. aureus A798.
For the compound `O=C1COc2ccc(N3C[C@H](CCNCc4cccc(-c5cccc(OC[C@@H]6CCCN6)c5)c4)OC3=O)nc2N1` [Example $102, 6-((S)-2-oxo-5-(2-(((3′-(((S)-pyrrolidin-2-yl)methoxy)-[1,1′-biphenyl]-3-yl)methyl)amino)ethyl)oxazolidin-3-yl)-2H-pyrido[3,2-b][1,4]oxazin-3(4H)-one], the MIC against K. pneumoniae T6474 was 2 µg/mL (≈ 3.68 µM); in the assay with E. coli ATCC25922 it was 1 µg/mL (≈ 1.84 µM); against P. aeruginosa ATCC 27853, 2 µg/mL (≈ 3.68 µM); with S. aureus A798 it was 2 µg/mL (≈ 3.68 µM).
With `CN1CC[C@H]1COc1cccc(-c2cccc(CNCC[C@H]3CN(c4ccc5c(n4)NC(=O)CO5)C(=O)O3)c2)c1` [Example $104, 6-[(S)-5-(2-{[3′-((S)-1-methyl-azetidin-2-ylmethoxy)-biphenyl-3-ylmethyl]-amino}-ethyl)-2-oxo-oxazolidin-3-yl]-4H-pyrido[3,2-b][1,4]oxazin-3-one], the MIC against K. pneumoniae T6474 was determined as 4 µg/mL (≈ 7.36 µM); with E. coli ATCC25922, 2 µg/mL (≈ 3.68 µM); in the assay on P. aeruginosa ATCC 27853, 4 µg/mL (≈ 7.36 µM); in the assay on S. aureus A798 it was 1 µg/mL (≈ 1.84 µM).
Consider `O=C1COc2ccc(N3C[C@H](CCNCc4cccc(-c5cccc(OC6CNC6)c5)c4)OC3=O)nc2N1` [Example $105, 6-[(S)-5-(2-{[3′-(azetidin-3-yloxy)-biphenyl-3-ylmethyl]-amino}-ethyl)-2-oxo-oxazolidin-3-yl]-4H-pyrido[3,2-b][1,4]oxazin-3-one], for which the MIC with K. pneumoniae T6474, in the assay on E. coli ATCC25922, against P. aeruginosa ATCC 27853 and in the assay with S. aureus A798 was 2 µg/mL (≈ 3.88 µM) in each case.
As to `O=C1COc2ccc(N3C[C@H](CCNCc4cccc(-c5cccc(OCC6CNC6)n5)c4)OC3=O)nc2N1` [Example $106, 6-[(S)-5-(2-{3-[6-(azetidin-3-ylmethoxy)-pyridin-2-yl]-benzylamino}-ethyl)-2-oxo-oxazolidin-3-yl]-4H-pyrido[3,2-b][1,4]oxazin-3-one], the MIC against K. pneumoniae T6474 was found to be 4 µg/mL (≈ 7.54 µM); against E. coli ATCC25922 it was 2 µg/mL (≈ 3.77 µM); against P. aeruginosa ATCC 27853, 1 µg/mL (≈ 1.88 µM); against S. aureus A798, 2 µg/mL (≈ 3.77 µM).
In the case of `O=C1COc2ccc(N3C[C@H](CCNCc4cccc(-c5cccc(OC6CNC6)n5)c4)OC3=O)nc2N1` [Example $107, 6-[(S)-5-(2-{3-[6-(azetidin-3-yloxy)-pyridin-2-yl]-benzylamino}-ethyl)-2-oxo-oxazolidin-3-yl]-4H-pyrido[3,2-b][1,4]oxazin-3-one], the MIC in the assay on K. pneumoniae T6474 was determined as 2 µg/mL (≈ 3.87 µM); in the assay on E. coli ATCC25922 it was 0.5 µg/mL (≈ 0.968 µM); against P. aeruginosa ATCC 27853, 0.5 µg/mL (≈ 0.968 µM); against S. aureus A798, 1 µg/mL (≈ 1.94 µM).
Take `O=C1COc2ccc(N3C[C@H](CCNCc4cccc(-c5cccc(OC[C@@H]6CCN6)n5)c4)OC3=O)nc2N1.O=CO` [Example $108, 6-[(S)-5-(2-{3-[6-((S)-1-azetidin-2-ylmethoxy)-pyridin-2-yl]-benzylamino}-ethyl)-2-oxo-oxazolidin-3-yl]-4H-pyrido[3,2-b][1,4]oxazin-3-oneformate]: the “MIC for K. pneumoniae T6474” value against K. pneumoniae T6474 stood at 2 µg/mL. Moreover, in the assay on E. coli ATCC25922, the “MIC for E. coli ATCC25922” value was determined as 1 µg/mL. Further, the “MIC for P. aeruginosa ATCC 27853” value against P. aeruginosa ATCC 27853 was determined as 0.5 µg/mL. For the same compound, in the assay on S. aureus A798, the “MIC for S. aureus A798” value is 2 µg/mL.
As to `CN1CC(COc2cccc(-c3cccc(CNCC[C@H]4CN(c5ccc6c(n5)NC(=O)CO6)C(=O)O4)c3)n2)C1` [Example $113, 6-[(S)-5-(2-{3-[6-(1-methyl-azetidin-3-ylmethoxy)-pyridin-2-yl]-benzylamino}-ethyl)-2-oxo-oxazolidin-3-yl]-4H-pyrido[3,2-b][1,4]oxazin-3-one], the MIC in the assay with K. pneumoniae T6474 is 2 µg/mL (≈ 3.67 µM); against E. coli ATCC25922, 2 µg/mL (≈ 3.67 µM); against P. aeruginosa ATCC 27853 it was 2 µg/mL (≈ 3.67 µM); in the assay on S. aureus A798, 0.5 µg/mL (≈ 0.918 µM).
For `O=C1COc2ccc(N3C[C@H](CCNCc4cccc(-c5cc(OC6CNC6)cnn5)c4)OC3=O)nc2N1` [Example $114, 6-[(S)-5-(2-{3-[5-(azetidin-3-yloxy)-pyridazin-3-yl]-benzylamino}-ethyl)-2-oxo-oxazolidin-3-yl]-4H-pyrido[3,2-b][1,4]oxazin-3-one], the MIC turned out to be 8 µg/mL (≈ 15.5 µM) against K. pneumoniae T6474, 4 µg/mL (≈ 7.73 µM) in the assay with E. coli ATCC25922, 1 µg/mL (≈ 1.93 µM) in the assay with P. aeruginosa ATCC 27853 and 16 µg/mL (≈ 30.9 µM) in the assay on S. aureus A798.
Turning to `O=C1COc2ccc(N3C[C@H](CCNCc4cccc(-c5nccc(O[C@@H]6CCNC6)n5)c4)OC3=O)nc2N1` [Example $115, 6-[(S)-2-oxo-5-(2-{3-[4-((R)-pyrrolidin-3-yloxy)-pyrimidin-2-yl]-benzylamino}-ethyl)-oxazolidin-3-yl]-4H-pyrido[3,2-b][1,4]oxazin-3-one], the MIC was 16 µg/mL (≈ 30.1 µM) in the assay with K. pneumoniae T6474, 4 µg/mL (≈ 7.52 µM) against E. coli ATCC25922, 2 µg/mL (≈ 3.76 µM) in the assay with P. aeruginosa ATCC 27853 and 4 µg/mL (≈ 7.52 µM) against S. aureus A798.
As for `O=C1COc2ccc(N3C[C@H](CCNCc4cccc(-c5cc(O[C@@H]6CCNC6)ncn5)c4)OC3=O)nc2N1` [Example $116, 6-[(S)-2-oxo-5-(2-{3-[6-((R)-pyrrolidin-3-yloxy)-pyrimidin-4-yl]-benzylamino}-ethyl)-oxazolidin-3-yl]-4H-pyrido[3,2-b][1,4]oxazin-3-one], the MIC worked out at 8 µg/mL (≈ 15 µM) with K. pneumoniae T6474, 2 µg/mL (≈ 3.76 µM) in the assay with E. coli ATCC25922, 2 µg/mL (≈ 3.76 µM) in the assay with P. aeruginosa ATCC 27853 and 4 µg/mL (≈ 7.52 µM) against S. aureus A798.
As for `O=C1COc2ccc(N3C[C@H](CCNCc4cccc(-c5cccc(O[C@@H]6CCNC6)n5)c4)OC3=O)nc2N1` [Example $118, 6-[(S)-2-oxo-5-(2-{3-[6-((R)-pyrrolidin-3-yloxy)-pyridin-2-yl]-benzylamino}-ethyl)-oxazolidin-3-yl]-4H-pyrido[3,2-b][1,4]oxazin-3-one], the MIC in the assay with K. pneumoniae T6474 was 2 µg/mL (≈ 3.77 µM); in the assay with E. coli ATCC25922, 1 µg/mL (≈ 1.88 µM); in the assay on P. aeruginosa ATCC 27853, 1 µg/mL (≈ 1.88 µM); against S. aureus A798 it was 2 µg/mL (≈ 3.77 µM).
For the compound `O=C1COc2ccc(N3C[C@H](CCNCc4cccc(-c5cccc(O[C@H]6CCNC6)n5)c4)OC3=O)nc2N1` [Example $119, 6-[(S)-2-oxo-5-(2-{3-[6-((S)-pyrrolidin-3-yloxy)-pyridin-2-yl]-benzylamino}-ethyl)-oxazolidin-3-yl]-4H-pyrido[3,2-b][1,4]oxazin-3-one], the MIC in the assay on K. pneumoniae T6474 is 1 µg/mL (≈ 1.88 µM); against E. coli ATCC25922, 1 µg/mL (≈ 1.88 µM); in the assay on P. aeruginosa ATCC 27853, 0.5 µg/mL (≈ 0.942 µM); against S. aureus A798, 0.5 µg/mL (≈ 0.942 µM).
As to `CN1CC[C@@H](Oc2cccc(-c3cccc(CNCC[C@H]4CN(c5ccc6c(n5)NC(=O)CO6)C(=O)O4)c3)n2)C1` [Example $120, 6-[(S)-5-(2-{3-[6-((R)-1-methyl-pyrrolidin-3-yloxy)-pyridin-2-yl]-benzylamino}-ethyl)-2-oxo-oxazolidin-3-yl]-4H-pyrido[3,2-b][1,4]oxazin-3-one], the MIC with K. pneumoniae T6474 turned out to be 2 µg/mL (≈ 3.67 µM); in the assay on E. coli ATCC25922 it was 1 µg/mL (≈ 1.84 µM); in the assay with P. aeruginosa ATCC 27853, 2 µg/mL (≈ 3.67 µM); with S. aureus A798 it was 0.5 µg/mL (≈ 0.918 µM).
In the case of `CN1CC[C@H](Oc2cccc(-c3cccc(CNCC[C@H]4CN(c5ccc6c(n5)NC(=O)CO6)C(=O)O4)c3)n2)C1` [Example $121, 6-[(S)-5-(2-{3-[6-((S)-1-methyl-pyrrolidin-3-yloxy)-pyridin-2-yl]-benzylamino}-ethyl)-2-oxo-oxazolidin-3-yl]-4H-pyrido[3,2-b][1,4]oxazin-3-one], the MIC against K. pneumoniae T6474 is 0.5 µg/mL (≈ 0.918 µM); with E. coli ATCC25922, 0.5 µg/mL (≈ 0.918 µM); with P. aeruginosa ATCC 27853, 1 µg/mL (≈ 1.84 µM); against S. aureus A798, 0.25 µg/mL (≈ 0.459 µM).
In the case of `CN1CC(Oc2cccc(-c3cccc(CNCC[C@H]4CN(c5ccc6c(n5)NC(=O)CO6)C(=O)O4)c3)n2)C1` [Example $122, 6-[(S)-5-(2-{3-[6-(1-methyl-azetidin-3-yloxy)-pyridin-2-yl]-benzylamino}-ethyl)-2-oxo-oxazolidin-3-yl]-4H-pyrido[3,2-b][1,4]oxazin-3-one], the MIC amounted to 0.5 µg/mL (≈ 0.942 µM) in the assay with K. pneumoniae T6474, 0.25 µg/mL (≈ 0.471 µM) with E. coli ATCC25922, 0.5 µg/mL (≈ 0.942 µM) against P. aeruginosa ATCC 27853 and 0.25 µg/mL (≈ 0.471 µM) against S. aureus A798.
For the compound `CN1CC[C@H]1COc1cccc(-c2cccc(CNCC[C@H]3CN(c4ccc5c(n4)NC(=O)CO5)C(=O)O3)c2)n1` [Example $123, 6-[(S)-5-(2-{3-[6-((S)-1-methyl-azetidin-2-ylmethoxy)-pyridin-2-yl]-benzylamino}-ethyl)-2-oxo-oxazolidin-3-yl]-4H-pyrido[3,2-b][1,4]oxazin-3-one], the MIC against K. pneumoniae T6474 was found to be 1 µg/mL (≈ 1.84 µM); in the assay with E. coli ATCC25922, 1 µg/mL (≈ 1.84 µM); in the assay on P. aeruginosa ATCC 27853 it was 1 µg/mL (≈ 1.84 µM); in the assay with S. aureus A798, 0.25 µg/mL (≈ 0.459 µM).

One may read the MIC as the lowest concentration found to suppress growth. A lower MIC goes with a more susceptible organism.
